Measurements taken from ChEMBL document CHEMBL4373715, “Discovery and Biological Evaluations of Halogenated 2,4-Diphenyl Indeno[1,2-b]pyridinol Derivatives as Potent Topoisomerase IIα-Targeted Chemotherapeutic Agents for Breast Cancer” (J Med Chem, 2019).
pIC50: −log10 of the molar value.

Key:
T47D = experiment: Antiproliferative activity against human T47D cells measured after 72 hrs by EZ-Cytox assay; assay type: functional, cell-based
HCT-15 = experiment: Antiproliferative activity against human HCT15 cells measured after 72 hrs by EZ-Cytox assay; assay type: functional, cell-based; details: HCT-15, 72 h
DU-145 = experiment: Antiproliferative activity against human DU145 cells measured after 72 hrs by EZ-Cytox assay; assay type: functional, cell-based; details: DU-145, 72 h
[1] = biological target: T1, DNA topoisomerase 1 (Homo sapiens) (UniProt P11387); experiment: Inhibition of recombinant human topoisomerase 1-mediated relaxation of supercoiled pBR322 DNA at 100 uM measured after 30 mins by ethidium bromide staining based agarose gel electrophoresis relative to control
T1 sequence (whole entry): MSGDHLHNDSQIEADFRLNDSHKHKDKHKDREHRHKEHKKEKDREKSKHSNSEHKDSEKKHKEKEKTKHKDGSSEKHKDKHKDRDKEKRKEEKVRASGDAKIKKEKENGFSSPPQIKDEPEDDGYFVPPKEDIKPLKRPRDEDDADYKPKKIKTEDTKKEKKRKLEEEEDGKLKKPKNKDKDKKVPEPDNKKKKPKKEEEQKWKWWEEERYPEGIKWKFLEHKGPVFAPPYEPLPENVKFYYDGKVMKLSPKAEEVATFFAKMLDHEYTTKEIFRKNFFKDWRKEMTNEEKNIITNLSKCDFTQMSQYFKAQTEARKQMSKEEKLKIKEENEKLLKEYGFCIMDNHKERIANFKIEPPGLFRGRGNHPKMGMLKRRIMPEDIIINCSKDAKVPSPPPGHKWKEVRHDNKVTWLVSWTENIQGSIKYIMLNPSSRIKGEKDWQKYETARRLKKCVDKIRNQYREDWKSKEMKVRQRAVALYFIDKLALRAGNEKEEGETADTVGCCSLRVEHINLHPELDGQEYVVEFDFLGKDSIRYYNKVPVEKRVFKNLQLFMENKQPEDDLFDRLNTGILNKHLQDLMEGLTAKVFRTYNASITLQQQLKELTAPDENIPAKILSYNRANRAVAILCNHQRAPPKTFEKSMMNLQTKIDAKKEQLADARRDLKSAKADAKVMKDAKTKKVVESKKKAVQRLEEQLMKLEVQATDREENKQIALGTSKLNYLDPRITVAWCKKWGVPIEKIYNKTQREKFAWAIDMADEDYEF

HeLa = experiment: Antiproliferative activity against human HeLa cells measured after 72 hrs by EZ-Cytox assay; assay type: functional, cell-based
[2] = biological target: DNA topoisomerase 2-alpha (Homo sapiens) (UniProt P11388); experiment: Inhibition of recombinant human topoisomerase 2alpha-mediated relaxation of supercoiled pBR322 DNA at 100 uM measured after 30 mins by ethidium bromide staining based agarose gel electrophoresis relative to control
Sequence of DNA topoisomerase 2-alpha (Homo sapiens) (P11388 whole entry): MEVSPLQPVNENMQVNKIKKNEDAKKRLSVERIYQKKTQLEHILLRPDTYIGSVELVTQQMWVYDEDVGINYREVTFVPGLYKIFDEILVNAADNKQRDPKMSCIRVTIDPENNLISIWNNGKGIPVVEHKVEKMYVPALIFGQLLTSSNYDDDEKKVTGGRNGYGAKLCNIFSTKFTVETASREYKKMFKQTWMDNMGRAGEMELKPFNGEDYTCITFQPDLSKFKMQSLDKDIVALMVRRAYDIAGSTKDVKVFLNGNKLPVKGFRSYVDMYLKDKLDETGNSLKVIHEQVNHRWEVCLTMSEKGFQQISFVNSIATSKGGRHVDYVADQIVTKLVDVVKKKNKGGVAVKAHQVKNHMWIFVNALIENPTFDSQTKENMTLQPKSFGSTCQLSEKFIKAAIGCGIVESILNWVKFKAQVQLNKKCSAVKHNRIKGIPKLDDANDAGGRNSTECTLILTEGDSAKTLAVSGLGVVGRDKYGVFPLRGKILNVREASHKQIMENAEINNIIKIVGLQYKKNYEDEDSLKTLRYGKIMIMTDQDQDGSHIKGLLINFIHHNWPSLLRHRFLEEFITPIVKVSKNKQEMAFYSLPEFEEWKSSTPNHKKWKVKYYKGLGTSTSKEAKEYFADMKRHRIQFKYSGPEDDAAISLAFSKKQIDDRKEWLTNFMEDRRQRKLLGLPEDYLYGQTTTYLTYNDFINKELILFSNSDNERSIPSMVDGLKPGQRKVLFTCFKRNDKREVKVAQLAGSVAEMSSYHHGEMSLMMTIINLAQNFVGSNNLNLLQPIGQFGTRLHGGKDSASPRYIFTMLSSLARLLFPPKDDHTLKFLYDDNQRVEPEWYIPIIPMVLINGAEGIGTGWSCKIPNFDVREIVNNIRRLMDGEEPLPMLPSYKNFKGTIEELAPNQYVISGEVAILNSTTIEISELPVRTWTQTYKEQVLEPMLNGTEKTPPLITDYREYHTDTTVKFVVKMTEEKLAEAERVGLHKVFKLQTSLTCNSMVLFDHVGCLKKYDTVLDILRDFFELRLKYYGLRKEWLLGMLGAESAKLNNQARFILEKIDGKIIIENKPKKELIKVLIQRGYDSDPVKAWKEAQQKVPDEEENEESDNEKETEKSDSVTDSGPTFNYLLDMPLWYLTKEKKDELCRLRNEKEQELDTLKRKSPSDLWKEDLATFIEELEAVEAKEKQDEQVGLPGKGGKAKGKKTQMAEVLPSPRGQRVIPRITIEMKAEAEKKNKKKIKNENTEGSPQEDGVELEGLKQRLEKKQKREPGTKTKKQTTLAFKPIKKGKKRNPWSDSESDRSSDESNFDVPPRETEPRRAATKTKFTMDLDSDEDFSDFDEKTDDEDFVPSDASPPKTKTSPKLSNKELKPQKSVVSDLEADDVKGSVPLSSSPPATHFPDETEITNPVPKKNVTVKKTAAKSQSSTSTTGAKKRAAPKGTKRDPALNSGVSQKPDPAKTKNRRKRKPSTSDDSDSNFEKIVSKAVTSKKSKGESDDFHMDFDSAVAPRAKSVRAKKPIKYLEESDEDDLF

| SMILES | pIC50 (T47D) | pIC50 (HCT-15) | pIC50 (DU-145) | inhibition [1] [%] | pIC50 (HeLa) | inhibition [2] [%] |
| --- | --- | --- | --- | --- | --- | --- |
| Oc1ccc(-c2cc(-c3cccc(F)c3)nc3c2Cc2cc(O)ccc2-3)cc1 | 5.87 | 5.45 | 5.84 | 8.7 | 5.17 | 4.5 |
| Oc1ccc2c(c1)Cc1c(-c3ccccc3)cc(-c3ccccc3O)nc1-2 | < 4.30 | < 4.30 | 5.79 | 2 | < 4.30 | 19 |
| Oc1cccc(-c2cc(-c3cccc(F)c3)nc3c2Cc2cccc(O)c2-3)c1 | 5.94 | < 4.30 | 6.03 | 14 | 4.82 | 17.8 |
| Oc1ccc2c(c1)-c1nc(-c3ccc(F)cc3)cc(-c3ccccc3O)c1C2 | 6.72 | 5.50 | 5.46 | 0 | 5.36 | 23.3 |
| Oc1ccccc1-c1cc(-c2cccc(F)c2)nc2c1Cc1cccc(O)c1-2 | 6.13 | 5.30 | 5.00 | 0 | 5.10 | 8.4 |
| Oc1cccc(-c2cc(-c3ccc(F)cc3)nc3c2Cc2cccc(O)c2-3)c1 | 5.65 | 5.39 | 5.48 | 2.3 | 5.06 | 27.3 |
| Oc1ccc(-c2cc(-c3cccc(Cl)c3)nc3c2Cc2cccc(O)c2-3)cc1 | 6.08 | 5.89 | 7.52 | 0 | 5.21 | 24.4 |
| Oc1ccc(-c2cc(-c3ccccc3)nc3c2Cc2cc(O)ccc2-3)cc1 | 5.45 | < 4.30 | 5.61 | 11.1 | 5.56 | 2.5 |
| Oc1ccc2c(c1)Cc1c(-c3ccccc3O)cc(-c3cccc(F)c3)nc1-2 | 6.07 | 5.37 | 5.50 | 0 | 5.61 | 28 |
| Oc1ccc2c(c1)Cc1c(-c3ccccc3O)cc(-c3ccccc3F)nc1-2 | 6.15 | 5.47 | 5.42 | 0 | 5.31 | 13.4 |
| Oc1cccc(-c2cc(-c3ccc(F)cc3)nc3c2Cc2c(O)cccc2-3)c1 | 5.76 | 5.57 | 6.25 | 26.2 | 5.17 | 27.8 |
| Oc1cccc(-c2cc(-c3ccccc3)nc3c2Cc2ccc(O)cc2-3)c1 | 6.08 | 5.86 | 5.80 | 0.5 | 5.86 | 1.2 |
| Oc1cccc(-c2cc(-c3ccccc3)nc3c2Cc2cccc(O)c2-3)c1 | 5.70 | 5.83 | 6.14 | 1.6 | 5.69 | 6.3 |
| Oc1ccccc1-c1cc(-c2ccccc2)c2c(n1)-c1c(O)cccc1C2 | < 4.30 | < 4.30 | 5.02 | 1 | < 4.30 | 1.2 |
| Oc1ccc(-c2cc(-c3ccccc3)c3c(n2)-c2cccc(O)c2C3)cc1 | 5.21 | 5.99 | 6.43 | 5.3 | 5.24 | 4.4 |
| Oc1ccc(-c2cc(-c3ccc(F)cc3)nc3c2Cc2cc(O)ccc2-3)cc1 | 5.73 | 5.36 | 5.80 | 8 | 5.42 | 17.1 |
| Oc1ccc(-c2cc(-c3ccccc3C(F)(F)F)nc3c2Cc2cccc(O)c2-3)cc1 | 5.84 | < 4.30 | < 4.30 | 3 | < 4.30 | 2.9 |
| Oc1ccc(-c2cc(-c3ccc(Cl)cc3)nc3c2Cc2cccc(O)c2-3)cc1 | < 4.30 | < 4.30 | 5.55 | 0.2 | < 4.30 | 26.2 |
| Oc1cccc(-c2cc(-c3ccccc3)c3c(n2)-c2c(O)cccc2C3)c1 | 5.43 | < 4.30 | 6.37 | 0 | < 4.30 | 0 |

| SMILES | pIC50 (T47D) | pIC50 (HCT-15) | pIC50 (DU-145) | inhibition [1] [%] | pIC50 (HeLa) | inhibition [2] [%] |
| --- | --- | --- | --- | --- | --- | --- |
| Oc1ccccc1-c1cc(-c2ccccc2F)nc2c1Cc1cccc(O)c1-2 | 5.34 | 5.42 | 5.00 | 0 | 5.12 | 0.6 |
| Oc1ccccc1-c1cc(-c2ccccc2)c2c(n1)-c1cccc(O)c1C2 | 5.19 | < 4.30 | 5.60 | 6.6 | 5.74 | 1.1 |
| Oc1ccc2c(c1)-c1nc(-c3cccc(F)c3)cc(-c3ccccc3O)c1C2 | 6.17 | 5.54 | 6.07 | 0 | 5.37 | 28.3 |
| Oc1ccc(-c2cc(-c3cccc(F)c3)nc3c2Cc2ccc(O)cc2-3)cc1 | 6.15 | 5.35 | 5.32 | 3 | 5.06 | 6.2 |
| Oc1ccc(-c2cc(-c3ccccc3F)nc3c2Cc2cc(O)ccc2-3)cc1 | 5.86 | 5.52 | 5.90 | 12.2 | 5.32 | 10.6 |
| Oc1ccc2c(c1)-c1nc(-c3ccccc3O)cc(-c3ccccc3)c1C2 | < 4.30 | < 4.30 | 5.73 | 0 | < 4.30 | 2.8 |
| Oc1cccc(-c2cc(-c3ccccc3)c3c(n2)-c2cccc(O)c2C3)c1 | 5.41 | 5.80 | 6.28 | 0.4 | 5.21 | 4.5 |
| Oc1cccc(-c2cc(-c3ccccc3F)nc3c2Cc2ccc(O)cc2-3)c1 | 5.53 | 5.53 | 6.40 | 16.3 | 5.43 | 28.1 |
| Oc1ccc2c(c1)Cc1c(-c3ccccc3O)cc(-c3ccc(F)cc3)nc1-2 | 5.50 | 5.34 | 5.32 | 0 | 4.84 | 6 |
| Oc1ccc(-c2cc(-c3cccc(F)c3)nc3c2Cc2c(O)cccc2-3)cc1 | 6.24 | 5.32 | 5.69 | 8.6 | 5.14 | 0.7 |
| Oc1cccc(-c2cc(-c3ccc(C(F)(F)F)cc3)nc3c2Cc2c(O)cccc2-3)c1 | 5.21 | 5.16 | 5.30 | 0.7 | 5.20 | 10.9 |
| Oc1ccc(-c2cc(-c3ccccc3F)nc3c2Cc2c(O)cccc2-3)cc1 | 6.06 | 5.55 | 5.74 | 5.4 | 5.21 | 15.3 |
| Oc1ccc(-c2cc(-c3ccccc3)nc3c2Cc2cccc(O)c2-3)cc1 | < 4.30 | < 4.30 | 5.38 | 10.2 | < 4.30 | 4 |
| Oc1ccccc1-c1cc(-c2ccccc2F)nc2c1Cc1c(O)cccc1-2 | 5.75 | 5.47 | 5.57 | 0 | 5.38 | 24.1 |
| Oc1ccc(-c2cc(-c3cccc(C(F)(F)F)c3)nc3c2Cc2cccc(O)c2-3)cc1 | 5.02 | 5.32 | 4.36 | 2.3 | 4.77 | 12.9 |
| Oc1ccc(-c2cc(-c3ccccc3F)nc3c2Cc2ccc(O)cc2-3)cc1 | 4.53 | < 4.30 | 4.85 | 3.3 | < 4.30 | 6.4 |
| Oc1ccc2c(c1)-c1nc(-c3ccccc3F)cc(-c3ccccc3O)c1C2 | 6.21 | 5.53 | 5.39 | 0 | 5.36 | 27 |
| Oc1ccc(-c2cc(-c3ccccc3)nc3c2Cc2c(O)cccc2-3)cc1 | 5.54 | 5.56 | 5.89 | 4.4 | 5.71 | 1.5 |
| Oc1cccc(-c2cc(-c3ccccc3)c3c(n2)-c2cc(O)ccc2C3)c1 | < 4.30 | < 4.30 | 6.38 | 0 | < 4.30 | 3.5 |
